Source: patent publication US20190388389A1, “METHODS AND COMPOSITIONS OF CARNOSOL FOR INHIBITING UVB-INDUCED SKIN DAMAGE” (Ohio University, priority 2017, published 2019)

What was measured:
normal skin cells = assay: Cell viability with carnosol or its UVB-decomposed molecules (FIG. 12); type: cell-based; conditions: within 12 h after treatment
Procedure: FIG. 12. The effect of carnosol or its decomposed molecules on cell viability. Cell viability assay of carnosol and its UVB-decomposed molecules on normal skin cells in a time dependent manner (6, 12, and 24 h after UVB radiation).
UVB was generated from a Bench XX-Series UV Lamp (UVP Inc.) equipped with two 15-watt UVB tubes (UVP Inc.). The intensity of UVB was calibrated by a UVP model UVX digital radiometer (UVP Inc.) after the lamps warmed up for 5 min. For irradiating cells, the dose rate for 8 mJ/cm^2 or 50 mJ/cm^2 of UVB radiation was 0.8 or 3.8 mW/s respectively. Medium was removed before exposing the cells to UVB. After UVB radiation, fresh medium was added to the culture plates with or without drugs, and the cells were continue incubating at 37° C. with 5% CO2 until further analysis. Carnosol was disovled in DMSO and was irradiated with 50 mJ/cm^2 of UVB radiation at a dose rate of 3.8 mW/s before subjecting to cells or structure analysis using Mass Spectrum.

[1] = tested on: A431 human squamous carcinoma cell; assay: MTT cell viability assay, A431; type: cell-based; conditions: A431, carnosol plus 50 mJ/cm^2 UVB, 24 h, vs no treatment control; UVB alone about 50%
Procedure: FIGS. 9A-9B. Carnosol decreases A431 cancer cell progression. Squamous carcinoma cell A431 was used to determine the effect of carnosol on cancer cell progression. (FIG. 9A) Effect of carnosol on cell viability. Cells were treated upon 50 mJ/cm^2 UVB radiation with or without carnosol treatment. After 24 h, cells were collect and MTT assay was performed to determine the cell viability. *p<0.05 versus control group, **p<0.05 versus UV group at indicated time point. (FIG. 9B) Effect of carnosol on clonogenic assay. Cells were exposed to 8 mJ/cm^2 UVB exposure in the presence or absence of carnosol. 5×10^3 cells were plated into 6 well plate immediately after treatment and incubated for […]. The error bars present the standard deviation of three sets of independent experiments. *p<0.05 versus control group, **p<0.05 versus UV group at indicated time point.
Since carnosol protects cell death upon UVB radiation, how carnosol affects skin cancer cells was also determined. A431 human squamous carcinoma cell was used as it is one of the cancer types that keratinocyte would develop. Cell viability was determined by MTT assay.

HaCaT cells = assay: Comet assay for HaCaT exposed to UVB radiation; type: cell-based, Human; conditions: semi-quantitative by Image J
Excerpt: FIG. 5D: Comet assay for HaCaT exposed to UVB radiation. After cell treatment, cells were trypsinized and collect for comet assay. The tail intensity was semi-quantitatively analyzed using Image J.
(§1) Both human keratinocyte (HaCaT) and mouse embryonic fibroblast (MEF) cells were used, and the protein levels of γH2AX and phosphor-Chk were used as DNA damage marker. […] Similar results are observed in MEF cells as both the phosphorylation level of H2AX and Chk reduced at early stage post UVB radiation (FIG. 5B). […] To further show the protection effect of carnosol on UVB-irradiated cell, a comet assay was performed. […] Thus, carnosol ast least partially protect the DNA damage from UVB radiation.

p-Chk = assay: Immunostaining of p-Chk in HaCaT cells upon UVB radiation; type: cell-based, Human; conditions: immunofluorescence
Excerpt: FIG. 5C: Immunostaining of p-Chk in HaCaT cells upon UVB radiation with or without carnosol treatment. P-Chk was stained with green fluorescent, while nucleus was stained by DAPI. Scale indicates 20 μm.
as §1

NF-κB [2] = assay: Electrophoretic mobility shift assay (EMSA), HaCaT nuclear extract; type: cell-based, Human; conditions: 20 μM carnosol; for NF-κB activity induction (EMSA): UVB alone about 2.6 fold
Procedure: (§2) FIGS. 7A-7F: Carnosol inhibited UVB-induced NF-κB activation. Cells were exposed to UVB radiation in the presence or absence of carnosol. Cells were lysed at indicated time point and protein levels were measured by western blot analysis. (FIG. 7A) Western blot for IκB protein level in HaCaT cells at 2, 4 h post UVB radiation at 1, 10 or 20 μM carnosol treatment. (FIG. 7B) Western blot analysis for IκB protein level in HaCaT cells at 6 h post UVB radiation in the presence or absence of carnosol. (FIG. 7C) Western blot analysis for IκB protein level in MEF cells at 6 h post UVB radiation in the presence or absence of carnosol. (FIG. 7D) Western blot for 5276 site phosphorylation of NF-κB in HaCaT cells at 6 h post UVB with indicated carnosol concentration. (FIG. 7E) EMSA assay for HaCaT cells at 2, 4, 6 h post UVB radiation in the presence or absence of carnosol (20 μM). (FIG. 7F) Statistical analysis of the EMSA assay using two to three sets of independent experiments. *p<0.05 versus control group, **p<0.05 versus UV group at indicated time point.
A 22-bp synthetic oligonucleotide (5′-[…]-3′) [SEQ ID NO:1] containing the specific NF-κB-binding site was annealed and labeled with γ-^32P-ATP using T4 polynucleotide kinase. A DNA-binding reaction mixture of total 20 μL containing poly(dI:dC), labeled probe, binding buffer (10 mM pH 8.0 Tris HCl, 150 mM KCl, 0.5 mM EDTA, 0.1% Triton-X 100, 12.5% Glycerol and 0.2 mM DTT) and 10 jag of cell nuclear extract was incubated at room temperature for 30 min and loaded onto a 5% nondenaturing polyacrylamide gel for electrophoresis. The gel was run in 0.5×TBE buffer at 120 V, transferred to a double layer of Whatman paper and dried on a gel dryer for 45-60 mM at 76° C. The dried gel was used to expose an autoradiography film (Denville) at −80° C. and the NF-κB bound ^32P-labeled DNA was detected, and the band intensity was analyzed by Image J.

NF-κB [3] = assay: Western blot for S276 phosphorylation of NF-κB, HaCaT cells; type: cell-based, Human; conditions: 20 μM carnosol, 6 h post UVB
Procedure: as §2
Cells were lysed with Nonidet P-40 (NP-40) lysis buffer (2% NP-40, 80 mM NaCl, 100 mM Tris-HCl pH 8.0, 0.1% SDS) with proteinase inhibitor mixture (Complete™, Roche Molecular Biochemicals) at indicated time point. […] Protein concentration was measured by Protein DC Assay kit (Bio-Rad Laboratories). […]

## CC(C)c1cc2c(c(O)c1O)[C@@]13CCCC(C)(C)[C@@H]1C[C@@H]2OC3=O [carnosol]
Normal skin cells
  protection of cell damage from UVB radiation (viability): can protect cell damage from UVB radiation in short term
[1]
  cell viability: 30%
HaCaT cells
  comet tail intensity upon UVB radiation: almost by half
p-Chk
  UVB-induced expression level of p-Chk in nucleus: significantly reduce
NF-κB [2]; 2 h post UVB, UVB alone induced by 20%
  NF-κB activity (DNA binding, EMSA): no statistically significant change
NF-κB [2]; 4 h post UVB
  NF-κB activity induction (EMSA): 2.2 fold
NF-κB [2]; 6 h post UVB
  NF-κB activity induction (EMSA): 1.5 fold
NF-κB [3]
  phosphorylation of NF-κB at Serine 276 (S276): reduces the phosphorylation
